# Measured values published in patent US20080057531A1, “SYSTEMS, KITS, AND METHODS FOR DETECTING CARIOGENIC BACTERIA AND ASSESSING RISK OF DENTAL CARIES” (Oregon Health and Science University, priority 2006, published 2008).
# Where a SMILES comes first, the peptide text is derived from it. Bridges are numbered along the chain shown (N, C = ends). [ ]: non-standard residue; d: D form. The star is where a group is joined. Ileψ(thiazoline)Cys = CC[C@H](C)[C@H](N)C1=N[C@H](C(=O)*)CS1; dOrn = NCCC[C@@H](N)C(=O)O
# Columns and labels:
# [1] = tested on: oral streptococci, including cariogenic S. mutans and non-cariogenic S. salivarius and S. sanguis; assay: sucrose as accelerant of growth of oral streptococci, suspended bacteria; format: cell-based; details: varying sucrose concentrations, FIG. 4
# Excerpt: (§1) FIG. 4 illustrates the effect of sucrose as a potential accelerant of growth of four different oral streptococci, increase of four different streptococci strains, including measurement of adherent bacteria, in response to varying sucrose concentrations.
# (§2) With reference to FIG. 1, the linear portion of the curves in each graph illustrates a range of measurements that can be used to accurately correlate ATP concentration and relative light units. FIG. 2 illustrates that the relationship of ATP content and viable cell number is linear during exponential phase of growth. However, ATP content becomes diminished during transition from exponential phase to […] of growth. […] Cultures tested include Streptococcus mutans ATCC 700610, Streptococcus mutans A TCC 25175, Streptococcus sanguis and Streptococcus sobrinus. Overnight cultures were prepared using BHI medium and then inoculum was transferred to fresh BHI medium in the presence (0.5 U/ml-10 U/ml) or absence of bacitracin. […] Thus, the presence of sucrose may represent a further improvement of the current CariScreen device, by 1) extending the effectiveness of bacitracin selection and by 2) increasing the likelihood or allowing all oral microorganisms to remain in an exponential phase of growth, which based on FIG. 2, represents an accurate determinant of bacterial number as measured by ATP.
# [2] = tested on: S. mutans; assay: sucrose effect on adherence of bacteria in a biofilm on the culture vessel; format: cell-based, Streptococcus mutans; details: sucrose especially at 0.5-1%, FIG. 4
# Excerpt: as §1, §2
# [3] = tested on: S. sobrinus; assay: bacitracin selection in suspended solution format, growth measured by ATP luminescence; format: cell-based, Streptococcus sobrinus; details: 0.5-1.0 U/ml bacitracin in BHI medium, FIG. 3
# Excerpt: (§3) FIG. 3 illustrates the relationship between bacitracin concentration and effect on growth of several oral streptococci species as measured by ATP luminescence.
# as §2
# [4] = tested on: S. mutans in saliva; assay: bacitracin selection for S. mutans in pediatric saliva samples incubated in BHI media; format: cell-based, Streptococcus mutans; details: four hours of bacitracin treatment, 7% at time 0, FIG. 5
# Excerpt: FIG. 5 illustrates the bacitracin-based selection for the highly cariogenic S. mutans species in the presence of non-mutans streptococci.
# This example describes a clinical study, examining the application of bacitracin selection (and sucrose growth accelerant) on oral micro-organisms found in dental plaque and saliva. This study examines up to 50 patients, with 3-4 plaque specimens and one saliva specimen per patient, and assesses the correlation between ATP content (measured by CariScreen meter and Veritas luminometer), wet weight of plaque specimens, total protein measurement, and viable bacterial numbers (total bacteria, total oral streptococci, Streptococcus mutans, and total lactobacilli as assessed with the use of plating on blood agar, mitis-salivarius agar, mitis-salivarius agar supplemented with bacitracin ([…] w/v), and Rogasa agar, respectively). […] With continued reference to FIG. 5, with four hours of bacitracin treatment the percentage of S. mutans in saliva went from 7% at time 0 to 75%. With reference to FIG. 6, a subject's saliva was added to BHI media±bacitracin (0.5 units/ml), and then incubated at 37° C. in a 5% carbon dioxide atmosphere. At times 0, 1, 2, and 4 hours samples were measured for ATP-driven bioluminescence and plated onto blood agar plates to measure total bacteria numbers. […]
# [5] = tested on: non-cariogenic streptococci, such as S. sanguis; assay: bacitracin selection in suspended solution format, growth measured by ATP luminescence; format: cell-based, Streptococcus sanguis; details: 0.5-1.0 U/ml bacitracin in BHI medium, FIG. 3
# Excerpt: as §3, §2
# [6] = tested on: cariogenic S. mutans; assay: as above; format: cell-based, Streptococcus mutans; details: 0.5-1.0 U/ml bacitracin in BHI medium, FIG. 3
# Excerpt: as §3, §2
smiles,measurement,setting,value
OC[C@H]1O[C@@](CO)(O[C@H]2O[C@H](CO)[C@@H](O)[C@H](O)[C@H]2O)[C@@H](O)[C@@H]1O [sucrose],effect on growth phase and yield,[1],extend the exponential phase of growth and promote increased yields at saturation
same,effect on adherence in a biofilm coating the plastic surface of the culture vessel,[2],promote the increased adherance
CC[C@H](C)[C@H](N)C1=N[C@H](C(=O)N[C@@H](CC(C)C)C(=O)N[C@H](CCC(=O)O)C(=O)N[C@H](C(=O)N[C@H]2CCCCNC(=O)[C@H](CC(N)=O)NC(=O)[C@@H](CC(=O)O)NC(=O)[C@H](Cc3cnc[nH]3)NC(=O)[C@@H](Cc3ccccc3)NC(=O)[C@H]([C@@H](C)CC)NC(=O)[C@@H](CCCN)NC2=O)[C@@H](C)CC)CS1 [bacitracin] ({Ileψ(thiazoline)Cys}-L[dE]IK[dOrn]I[dF]H[dD]N; lactam 4-C),effect on growth,[3],allows considerable break-through of growth
same,percentage of S. mutans in saliva,[4],75%
same,effect on growth,[5],greatly inhibit
same,effect on growth,[6],allows considerable break-through of growth
